AC50, IC50 and EC50 data for three compounds are collected here from ChEMBL document CHEMBL1201862, “PubChem BioAssay data set” (2004).

Active and inactive are the calls of the source.

Common to all, as to assay type: functional
For assay [1], the target named is T1, Replicative DNA helicase DnaB (Mycobacterium tuberculosis, UniProt P9WMR3).
T1 sequence (P9WMR3 whole entry): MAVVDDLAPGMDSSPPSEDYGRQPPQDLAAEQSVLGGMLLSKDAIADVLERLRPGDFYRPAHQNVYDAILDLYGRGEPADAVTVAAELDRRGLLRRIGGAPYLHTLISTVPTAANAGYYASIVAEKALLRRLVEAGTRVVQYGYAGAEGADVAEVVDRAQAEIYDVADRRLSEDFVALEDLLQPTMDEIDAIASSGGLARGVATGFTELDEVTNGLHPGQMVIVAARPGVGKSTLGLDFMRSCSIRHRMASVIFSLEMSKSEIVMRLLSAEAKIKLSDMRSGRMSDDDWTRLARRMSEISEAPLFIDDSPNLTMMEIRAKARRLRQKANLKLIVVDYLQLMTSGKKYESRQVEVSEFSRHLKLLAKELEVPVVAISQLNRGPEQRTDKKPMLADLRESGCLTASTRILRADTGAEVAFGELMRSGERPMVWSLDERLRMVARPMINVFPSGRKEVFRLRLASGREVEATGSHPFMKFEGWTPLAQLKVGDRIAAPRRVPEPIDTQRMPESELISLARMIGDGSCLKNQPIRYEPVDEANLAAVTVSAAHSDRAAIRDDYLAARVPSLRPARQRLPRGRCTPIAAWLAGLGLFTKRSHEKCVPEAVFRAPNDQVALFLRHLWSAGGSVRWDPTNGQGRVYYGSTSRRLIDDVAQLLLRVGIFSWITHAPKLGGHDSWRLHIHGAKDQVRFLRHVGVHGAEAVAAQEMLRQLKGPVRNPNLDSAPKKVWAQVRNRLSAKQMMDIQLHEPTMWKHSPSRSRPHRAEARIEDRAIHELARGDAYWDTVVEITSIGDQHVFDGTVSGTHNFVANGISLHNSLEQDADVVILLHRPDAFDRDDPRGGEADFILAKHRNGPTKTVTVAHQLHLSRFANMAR
As to the kind of experiment: DnaB intein splicing inhibitors, dose response, biochemical, cell-free fluorescence (AID 449749).

In assay [2] the target is T2, Ubiquitin-conjugating enzyme E2 N (Homo sapiens, UniProt P61088).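 Also: Dose-response confirmation in a TR-FRET assay detecting UBC13-driven polyubiquitin chain formation, inhibition measured.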
T2 sequence (P61088 whole entry): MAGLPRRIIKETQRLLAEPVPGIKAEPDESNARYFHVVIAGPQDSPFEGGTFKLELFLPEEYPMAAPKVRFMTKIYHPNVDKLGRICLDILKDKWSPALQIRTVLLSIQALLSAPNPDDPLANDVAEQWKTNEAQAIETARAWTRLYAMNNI

The next assay has as its target T3, Protein RecA (Mycobacterium tuberculosis, UniProt P9WHJ3).
T3 sequence (P9WHJ3 whole entry): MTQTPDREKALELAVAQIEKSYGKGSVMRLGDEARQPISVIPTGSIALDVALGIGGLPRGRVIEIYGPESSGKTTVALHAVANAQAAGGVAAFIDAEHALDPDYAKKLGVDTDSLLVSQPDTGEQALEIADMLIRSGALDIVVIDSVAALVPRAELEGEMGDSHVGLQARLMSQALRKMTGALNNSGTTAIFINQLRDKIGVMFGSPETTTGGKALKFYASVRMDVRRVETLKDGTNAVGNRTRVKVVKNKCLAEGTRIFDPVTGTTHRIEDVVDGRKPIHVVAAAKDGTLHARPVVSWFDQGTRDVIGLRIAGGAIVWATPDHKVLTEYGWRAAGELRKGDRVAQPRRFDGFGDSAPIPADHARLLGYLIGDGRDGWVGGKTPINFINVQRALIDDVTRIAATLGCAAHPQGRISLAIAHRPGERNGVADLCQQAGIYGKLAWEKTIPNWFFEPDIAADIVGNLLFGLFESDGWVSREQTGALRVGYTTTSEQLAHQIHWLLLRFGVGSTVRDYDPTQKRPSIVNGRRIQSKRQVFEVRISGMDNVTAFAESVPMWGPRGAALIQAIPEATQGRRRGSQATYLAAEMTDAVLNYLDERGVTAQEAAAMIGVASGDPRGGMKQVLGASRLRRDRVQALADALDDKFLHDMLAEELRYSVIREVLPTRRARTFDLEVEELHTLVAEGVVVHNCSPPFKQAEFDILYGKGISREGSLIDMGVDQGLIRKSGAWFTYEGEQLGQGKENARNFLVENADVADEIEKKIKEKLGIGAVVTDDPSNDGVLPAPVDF
As to the kind of experiment: Fluorescence Cell-Free Homogeneous Dose Retest to Identify Inhibitors of RecA-Intein Splicing Activity. [Related pubchem assays (depositor defined):AID2097, AID2223, AID489010, AID492950].

Broadly, the AC50 is the concentration giving half of the maximal activity seen. By IC50 is commonly meant the concentration that inhibits the measured activity by half. In general, EC50 refers to the concentration at which the effect is half-maximal. With `CCCCCCCCCC[N+](C)(C)CC/C=C1/c2ccccc2Sc2ccc(Cl)cc21`, the AC50 in assay [1] was > 380 µM (inconclusive). Besides, the IC50 in assay [2] was 4.61 µM (active). Also, the EC50 at Protein RecA is 5.8 µM (active).

As to `COc1cc(/C=C/c2cc[n+](C)cc2)ccc1OCC(=O)Nc1ccc(Cl)c(Cl)c1`, the AC50 in assay [1] is > 380 µM (inactive). In addition, in assay [2], the IC50 was 7.13 µM (active). The EC50 at Protein RecA is 17.2 µM (active).

On to `O=C(NCCc1ccccc1)C(c1cccs1)N(C(=O)CCl)c1ccc(Cl)cc1` (stereo not drawn), for which the AC50 in assay [1] is 1.49 µM (active). Also, the EC50 at Protein RecA is 0.233 µM (active).
